# Earlier results as cited in US6511676B1 (priority 1999, dated 2003).
# Tests used:
# testicular cancers = conditions: in vivo
# [1] = test system: epithelial ovarian carcinoma; conditions: oral, 61 patients with cis- or carboplatin resistance
structure (smiles),measurement,setting,value
"N.N.[Cl][Pt][Cl] [cisplatin, Cis-diamminedichloroplatinum(II)]",testicular cancers cured,testicular cancers,More than 90%
CN(C)c1nc(N(C)C)nc(N(C)C)n1 [hexamethylmelamine],objective response rate,[1],14%
